Data taken from patent publication US9908896B2, “P38 and JNK MAPK inhibitors for the treatment and prophylaxis of degenerative diseases of the nervous system” (ALLINKY BIOPHARMA, priority 2014, dated 2018).

Tested on: Aβ25-35-induced learning deficits
Test: Novel object recognition after i.c.v. Aβ25-35 injection
Format: in vivo, male Sprague Dawley rats
Settings: 10 mg/kg i.v. once a day
Procedure: The purpose of the study was to determine whether the test compound 1 can alleviate the pathology produced in rats by the acute intracerebroventricular (i.c.v) injection of an oligomeric Aβ25-35 peptide preparation. The compound efficacy was evaluated 7 days after the peptide administration, on: • the attenuation of the Aβ25-35-induced learning deficits (recognition long-term memory: novel object recognition); • the attenuation of the Aβ25-35-induced Aβ^1-42 accumulation in the rat hippocampus. One administration procedure was examined: the compound 1 (10 mg/kg) administered intraveinously (i.v.) once a day during 9 days. […] On day 8 and 9, the recognition long-term memory of the animals was assessed using the novel object recognition (NOR) procedure. […] Each rat was placed in the open-field and the exploratory activity recorded during a 10-min duration session. The activity was analyzed using the Nosetrack® protocol (Viewpoint), in terms of number of contact with objects and duration of contacts. […] Each rat was placed again in the open-field and the exploratory activity recorded during a 10-min duration session. The activity was analyzed similarly. The preferential exploration index was calculated as the ratio of the number (or duration) of contacts with the object in position #1 over the total number for duration) of contacts with the two objects. […]

## CCCOc1ccc(Nc2nc3nonc3nc2N2CCC(Oc3ccc(Cl)cc3)CC2)cc1 [Comp 1]
Day 8, two identical objects, vs no preference level
  Object preference in session 2 (contacts and duration of contacts): higher than 50%
Day 9, vs 50% level
  Novel object preference in session 3 (number and duration of contacts): alleviated the impairments
